In patent publication US20050256056A1, “Peptide inhibitors of HIV” (priority 2003, published 2005):
Read-outs that look alike come from different tables or passages of the source. Non-standard residues stand in square brackets, D forms with d. Residues, ends and D or L forms follow the SMILES beside them.

Tests used:
HIV-1 NL4-3 = assay: focal infectivity assay, inhibition of HIV-1 NL4-3 in HeLa H1-JC.37 cells; format: cell-based
Source text: The term “EC50” refers to the concentration of peptide that inhibits 50% viral activity, including infective activity, as measured in an in vitro assay, including a focal infectivity assay (described in Pincus, et al. Biotechniques 10:336 (1991)).
Peptides and peptide analogs that bind to an HIV target protein of interest are then screened for their effectiveness in inhibiting HIV activity in vitro. One assay for evaluating HIV inhibiting activity in vitro is a focal infectivity assay, described by Pincus, et al. Biotechniques 10:336 (1991). Preferred peptides and peptide analogs will inhibit HIV activity in vitro at a concentration of about 50 μM or less, more preferably at about 40 μM, 30 μM, 25 μM or 20 μM or less, and more preferably at about 15 μM, 10 μM or 5 μM or less.
After re-synthesis of 16 of these as soluble peptides, 13 were tested for ability to inhibit the NL4-3 clone of HIV-1 (the other 3 were insoluble). For these studies a focal infectivity assay was carried out using HeLa H1-JC.37 cells. H1-JC.37 cells are HeLa cells that naturally express the CXCR4 receptor and that have been engineered to express CD4 and CCR5 receptors (Platt, et al. J. Virol. 72:2855 (1998)). Dose-response curves were performed in triplicate experiments with 6 determinations per drug concentration in each experiment. None of these peptides inhibited growth of HeLa H1-JC.37 cells at the concentrations tested (up to 100 μM). […] The purified peak fraction was re-tested for anti-HIV activity, and the EC50 was determined to be 8 μM. The identity of the biologically active peptide has been confirmed with mass spectrometry.

ogp140 = biological target: T1, ogp140 (Human immunodeficiency virus type 1 group M subtype B, UniProt P19550); format: binding, HIV-1 SF162 strain; settings: Table 2 peptides re-synthesized on beads
T1 construct: ogp140, which contains gp120 and the ectodomain of the gp41 subunit in a trimeric form; purchased Chiron Corporation (gift from Dr. Indresh Srivastava, not a purchase)
T1 sequence (P19550 32-675): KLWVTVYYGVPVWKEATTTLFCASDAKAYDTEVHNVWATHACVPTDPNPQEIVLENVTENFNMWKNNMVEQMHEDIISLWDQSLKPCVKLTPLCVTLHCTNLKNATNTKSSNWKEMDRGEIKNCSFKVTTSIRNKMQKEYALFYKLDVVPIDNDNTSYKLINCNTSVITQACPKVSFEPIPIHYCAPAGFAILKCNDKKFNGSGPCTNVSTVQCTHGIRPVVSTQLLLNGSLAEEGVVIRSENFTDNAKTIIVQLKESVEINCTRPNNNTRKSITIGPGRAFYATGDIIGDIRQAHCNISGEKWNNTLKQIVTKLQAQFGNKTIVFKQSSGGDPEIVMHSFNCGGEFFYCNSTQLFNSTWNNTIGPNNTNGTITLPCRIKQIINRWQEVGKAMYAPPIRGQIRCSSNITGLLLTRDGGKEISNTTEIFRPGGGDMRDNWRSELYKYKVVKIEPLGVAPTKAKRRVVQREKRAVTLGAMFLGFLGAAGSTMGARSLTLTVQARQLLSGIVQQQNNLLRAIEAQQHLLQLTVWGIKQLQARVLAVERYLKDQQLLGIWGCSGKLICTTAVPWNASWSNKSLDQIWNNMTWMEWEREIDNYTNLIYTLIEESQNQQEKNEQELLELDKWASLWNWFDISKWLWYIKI
Experimental: The optimal concentrations of glycoproteins for our screening assays were determined to be 0.25-1.25 μg/ml for ogp140 and 1-5 μg/ml for gp120. In order to visualize beads with bound ogp140 or gp120, these proteins were biotinylated so that an enzyme-linked colorimetric assay could be used to identify positive beads. Biotinylation was performed with Sulpho-NHS-biotin at a 5:1 molar ratio of biotin to protein. Reactions were carried out for both 3 minutes and 10 minutes to obtain different levels of biotinylation and were stopped with 2 M Tris-HCl, pH 7.4. The proteins were dialyzed for 4-5 hr to remove excess biotin.
The peptides of Table 2 were re-synthesized on beads.
These secondary libraries were screened with ogp140 under higher stringency (lower protein concentrations of both ogp140 and streptavidin-alkaline phosphatase (ST-AP)). The concentrations of ogp140 used in this screen were 0.06 mg/mL and 0.3 mg/mL. These concentrations are 4-fold lower than those used in the original screen (0.25 mg/mL and 1.25 mg/mL). The amount of ST-AP was lowered from 1:15,000 in the original screen to 1:25,000 in this screen. Approximately 75,000 beads from each library were screened.
From the 34 positive beads of the 8-mer library, the 12 darkest beads were selected for sequence analyses and the results are in Table 3.

| EC50 (HIV-1 NL4-3; NL4-3) | SMILES | EC50 (HIV-1 NL4-3; HPLC-purified peak fraction re-tested, read-out: EC50 of purified peak fraction, anti-HIV activity) | staining intensity of peptide beads in binding assays with ogp140 (ogp140) |
| --- | --- | --- | --- |
| 55 µM | CC(C)[C@@H](NC(=O)[C@@H](Cc1c[nH]cn1)NC(=O)[C@@H](CC(=O)O)NC(=O)[C@@H](Cc1ccccc1)NC(=O)[C@@H]1CCCN1C(=O)[C@@H](CCC(N)=O)NC(=O)[C@@H](Cc1ccc(O)cc1)NC(=O)[C@H](N)Cc1ccc(O)cc1)C(=O)O [compound 14] (H-[dY][dY][dQ]P[dF][dD][dH][dV]-OH; N-terminus and C-terminus assumed) |  |  |
| > 100 µM | CSCC[C@@H](NC(=O)[C@H](N)Cc1c[nH]cn1)C(=O)N[C@H](CC(N)=O)C(=O)N1CCC[C@H]1C(=O)N[C@H](Cc1ccccc1)C(=O)N[C@H](Cc1ccc(O)cc1)C(=O)N[C@H](Cc1ccc(O)cc1)C(=O)N[C@H](CCC(N)=O)C(=O)O [compound 13] (H-[dH][dM][dN]P[dF][dY][dY][dQ]-OH; N-terminus and C-terminus assumed) |  |  |
| > 100 µM | CC[C@@H](C)[C@@H](NC(=O)[C@@H](Cc1c[nH]c2ccccc12)NC(=O)[C@@H]1CCCN1C(=O)[C@@H](Cc1ccc(O)cc1)NC(=O)[C@@H](CO)NC(=O)[C@H]1CCCN1C(=O)[C@@H](C)N)C(=O)N[C@H](CCCNC(=N)N)C(=O)O [compound 1] (H-[dA][dP][dS][dY]P[dW][dI][dR]-OH; N-terminus and C-terminus assumed) |  |  |

| SMILES | EC50 (HIV-1 NL4-3; NL4-3) | EC50 (HIV-1 NL4-3; HPLC-purified peak fraction re-tested, read-out: EC50 of purified peak fraction, anti-HIV activity) | staining intensity of peptide beads in binding assays with ogp140 (ogp140) |
| --- | --- | --- | --- |
| CC[C@@H](C)[C@@H](NC(=O)[C@@H](Cc1c[nH]c2ccccc12)NC(=O)[C@@H]1CCCN1C(=O)[C@@H](Cc1ccc(O)cc1)NC(=O)[C@@H](CO)NC(=O)[C@H]1CCCN1C(=O)[C@H](N)CCSC)C(=O)N[C@H](CCCNC(=N)N)C(=O)O [compound 16, mpsyPwir] (H-[dM][dP][dS][dY]P[dW][dI][dR]-OH; N-terminus and C-terminus assumed) | 17 µM | 8 µM | stain more intensively |
